Measured values published in patent EP2680005A1, “Lipid analysis” (Rheinische Friedrich-Wilhelms-Universität Bonn, priority 2012, dated 2014).
Read-outs that look alike come from different tables or passages of the source.

Legend:
[1] = tested on: HuH7 hepatoma cells; experiment: Pulse chase labeling with alkyne fatty acids; type: cell-based
Protocol: Alkyne lipid precursors are supplemented to cell culture where they become incorporated into cellular lipids, e.g. into phosphatidylcholine (PC). These are extracted and reacted with the fluorogenic dye 3-azido-7-hydroxycoumarin in the presence of copper(I). […] (a) Alkyne-Bodipy at concentrations as indicated was reacted with either 60 µM 3-azido-7-hydroxycoumarin and 2mM Cu(I)BF4 (+) or incubated in ethanol for 3h at 42°C (-). The samples were separated by TLC using hexane/ethyl acetate 1/1 as the mobile phase. The dried TLC plate was first imaged with excitation at 485 nm and emission at >520 nm (left panel, Bodipy channel), followed by treatment with 4% Hünig's base in hexane and imaging with excitation at 420 nm and emission at 484-504 nm (right panel, Coumarin channel). (b, c) Influence of dye concentration and base treatment. A172 cells were grown in a 15 cm dish and labeled with 100 µM alkyne-palmitate/alkyne-oleate 1/1 for 2 h. Lipids were extracted and dissolved in 2 ml CHCl3. 2 µl of this extract were reacted with 2 mM Cu(I)BF4 and the indicated concentration of 3-azido-7-hydroxycoumarin in 37 µl ethanol/MeCN/CHCl3 24/6/7 at 42°C for 3 h. Samples were separated by TLC and imaged (b) before (right panel) and after (left panel) treatment with 4%-Hünig's base in hexane for the times indicated. (c) Plot of the integrated fluorescence intensity of lane 6 of panel b (left) and from the corresponding one second exposure before base treatment. […] The cholesterol ester of alkyne-oleate at the indicated concentrations was subjected to detection reaction, TLC separation and fluorescence imaging using the standard protocol. […] (b) Quantification of integrated fluorescence of panel a. […] Signals were quantified either by scraping, extraction and scintillation counting (panel b, ^3H-oleate) or by integration of signals form the fluorescence image (panel b, alkyne-oleate). […] Lipids extracts were dried and subjected to detection reaction, TLC separation and fluorescence imaging using the standard protocol. […] (b) Quantification of the signals in panel a. […]

[2] = tested on: Drosophila melanogaster L3 larvae; experiment: Alkyne fatty acid labeling of opened single L3 larvae; details: 50 µM, 30 min
Protocol: (§1) Alkyne lipid precursors are supplemented to cell culture where they become incorporated into cellular lipids, e.g. into phosphatidylcholine (PC). These are extracted and reacted with the fluorogenic dye 3-azido-7-hydroxycoumarin in the presence of copper(I). […] (a) Alkyne-Bodipy at concentrations as indicated was reacted with either 60 µM 3-azido-7-hydroxycoumarin and 2mM Cu(I)BF4 (+) or incubated in ethanol for 3h at 42°C (-). The samples were separated by TLC using hexane/ethyl acetate 1/1 as the mobile phase. […] (c) Plot of the integrated fluorescence intensity of lane 6 of panel b (left) and from the corresponding one second exposure before base treatment. […] The cholesterol ester of alkyne-oleate at the indicated concentrations was subjected to detection reaction, TLC separation and fluorescence imaging using the standard protocol. […] (b) Quantification of integrated fluorescence of panel a. […] Signals were quantified either by scraping, extraction and scintillation counting (panel b, ^3H-oleate) or by integration of signals form the fluorescence image (panel b, alkyne-oleate). […] Lipids extracts were dried and subjected to detection reaction, TLC separation and fluorescence imaging using the standard protocol. […] (b) Quantification of the signals in panel a. […]

[3] = tested on: Freshly isolated mouse hepatocytes; experiment: Comparison of 3H-oleate and alkyne-oleate labeling (click/TLC fluorescence vs scintillation counting); type: cell-based
Protocol: as §1

[4] = tested on: Freshly isolated mouse hepatocytes; experiment: Hepatocyte fatty acid metabolism, time course with alkyne or natural fatty acids; type: cell-based; details: 50 µM fatty acid, all labeling times; fluorescent click analysis
Protocol: as §1

[5] = tested on: A-172 cells; experiment: Alkyne-sphinganine labeling of cultivated cells, click analysis; type: cell-based; details: cultivated 1 h with the compound
Protocol: as §1

| SMILES | fate of label after chase [1] | incorporation into PE [2] | amount of label in neutral lipids [3] [%] | incorporation into TAG compared to PC [4] | fate of label after chase ([1]; 3 min pulse, 30 min chase) | distribution of label after pulse ([1]; 3 min pulse, no chase) | labeling of cellular lipids [5] |
| --- | --- | --- | --- | --- | --- | --- | --- |
| C#CCCCCCCC/C=C\CCCCCCCC(=O)O [alkyne-oleate, Nonadec-9-cis-en-18-ynoic acid] | metabolized to the final products PC, PE, TAG and CE | large amounts | 49 |  |  |  |  |
| C#CCCCCCCCCCCCCCCC(=O)O [alkyne-palmitate, 16-Heptadecynoic acid] |  | much less |  | equal distribution between PC and TAG | metabolized to the final products PC, PE, TAG and CE | much of the fatty acids were found as the free substance, or in biosynthetic intermediates such as PA and DAG |  |
| C#CCCCCCCCCCCCCC[C@@H](O)[C@@H](N)CO [alkyne-sphinganine, (2S,3R)-2-Aminooctadec-17-yn-1,3-diol] |  |  |  |  |  |  | strong labeling of ceramide and other sphingolipids |
